Publication PMC7377239, “Cardiovascular Effects of Polychlorinated Biphenyls and Their Major Metabolites” (Environmental Health Perspectives, 2020)
Like-named read-outs stand apart in the source and are kept apart here.

Test system: iCell cardiomyocytes (human iPSC-derived cardiomyocytes)
Experiment: High-content imaging of cytotoxicity and mitochondrial integrity in iPSC-CMs
Type: cell-based
Settings: Homo sapiens; for viability at 0.01 µM / activity at 0.01 µM / viability at 0.1 µM / activity at 0.1 µM / viability at 1 µM / activity at 1 µM / viability at 10 µM / activity at 10 µM / viability at 100 µM / activity at 100 µM: Cardiomyocyte, 0.00 µM = 100.00; for viability at 0.1 µM / activity at 0.1 µM: 0.10 µM; for minimal effective concentration: iPSC-CM
Method: Details on cardiomyocyte cell culture are described in detail elsewhere ([Grimm et al. 2015b]; [Sirenko et al. 2013a]). Briefly, tissue-culture treated 384 well plates were gelatinized with 25μL per well of 0.1% (w/v) gelatin in water for 2 h at 37°C and 5% CO2 . Individual vials of cells were thawed for 4 min in a water bath maintained at 37°C. Thawed cells were resuspended in 10ml plating medium containing 1:500 (vol/vol) penicillin/streptomycin solution at room temperature (RT). Live cell counts for each cell suspension were determined by trypan blue staining and cells were further diluted to provide final cell densities of 2×10^5 viable cells/ml. Thus, 5,000 cells suspended in 25μL media were transferred per well after the gelatin solution had been discarded. Cell culture plates were rested for 30 min at RT before they were incubated for 48 h at 37°C and 5% CO2 . Then, a media exchange with 30μL of fresh maintenance medium containing 1:500 (vol/vol) penicillin/streptomycin solution was performed, and cell media were subsequently changed every 48 h for 12 d. On the experiment day, the medium was completely exchanged with either 25μL (for Ca^2+ flux assay) or 40μL (for imaging) of fresh medium.
Cytotoxicity and effects on mitochondrial integrity of various PCBs and PCB metabolites in induced pluripotent stem cell-CMs (iPSC-CMs) were assessed using high-content cellular imaging in ImageXpress® Micro Confocal (Molecular Devices) as detailed in ([Grimm et al. 2015b]). Cells in 40μL maintenance media were treated with 10μL of 5× chemical solutions to provide test chemicals at final assay concentrations ranging from 0.01 to 100μM . […] Next, sample wells were treated with 50μL equilibrated 2× concentrated staining solution (maintenance medium containing Hoechst 33342, 4μg/mL and MitoTracker™ Orange, 0.4μM ). Microplates were then incubated for 15 min at 37°C and 5% CO2 before cells were washed twice with 30μL maintenance medium. All media were aspirated and discarded, and cells were fixed with […] of a 3.7% formaldehyde solution for 15 min at 37°C and 5% […] . Fixed cells were washed 3× with 25μL PBS before image acquisition using the DAPI (Hoechst 33342) and Cy3 (MitoTracker™ Orange) filters at 10× magnification on the ImageXpress® Micro Confocal high-content confocal microscope (Molecular Devices). The multiwavelength cell scoring applications module in MetaXpress® was used to analyze acquired images.
Phenotypic responses were quantitatively assessed using concentration–response modeling as detailed elsewhere ([Sirenko et al. 2017]). Briefly, phenotypic readouts were normalized to vehicle controls and fit to a four-parameter logistic model in R studio software (version 3.1.1; R Development Core Team). Following EPA guidance on dose–response modeling, a cutoff of one standard deviation across means of vehicle control (i.e., 0.5% vol/vol DMSO in cell culture media) wells was applied to determine the point-of-departure (POD) values ([U.S. EPA 2012]). In the absence of a concentration–response, the highest tested concentration (i.e., 100μM ) was assigned as “no observable adverse effect level.” The concentration–response assessment R script, as well as templates for vehicle and concentration–response data, are available as a supplement to Sirenko et al. ([2017]). The ability of physicochemical properties to predict differences in PODs were evaluated by multiregression and mixed-effects modeling using R.

[1] = 1.5 h, read-out: cm.cam.90min POD
[2] = 1.5 h, read-out: cm.mii.90min POD
[3] = 1.5 h, read-out: cm.mito.90min POD
[4] = 1.5 h, read-out: cm.tc.90min POD
[5] = 24 h, read-out: cm.cam.24hrs POD
[6] = 24 h, read-out: cm.mii.24hrs POD
[7] = 24 h, read-out: cm.mito.24hrs POD
[8] = 24 h, read-out: cm.tc.24hrs POD

COc1ccc(-c2ccc(Cl)cc2)cc1 [4'-OMe PCB3]
viability at 0.01 µM (1.5 h, read-out: cm.cam.90min): 95% | activity at 0.01 µM (1.5 h, read-out: cm.mii.90min): 107% | activity at 0.01 µM (1.5 h, read-out: cm.mito.90min): 94.4% | viability at 0.01 µM (1.5 h, read-out: cm.tc.90min): 94.9% | viability at 0.1 µM (1.5 h, read-out: cm.cam.90min): 96% | activity at 0.1 µM (1.5 h, read-out: cm.mii.90min): 114% | activity at 0.1 µM (1.5 h, read-out: cm.mito.90min): 96% | viability at 0.1 µM (1.5 h, read-out: cm.tc.90min): 96.1% | viability at 1 µM (1.5 h, read-out: cm.cam.90min): 103% | activity at 1 µM (1.5 h, read-out: cm.mii.90min): 103% | activity at 1 µM (1.5 h, read-out: cm.mito.90min): 102% | viability at 1 µM (1.5 h, read-out: cm.tc.90min): 103% | viability at 10 µM (1.5 h, read-out: cm.cam.90min): 102% | activity at 10 µM (1.5 h, read-out: cm.mii.90min): 109% | activity at 10 µM (1.5 h, read-out: cm.mito.90min): 101% | viability at 10 µM (1.5 h, read-out: cm.tc.90min): 101% | viability at 100 µM (1.5 h, read-out: cm.cam.90min): 104% | activity at 100 µM (1.5 h, read-out: cm.mii.90min): 99.8% | activity at 100 µM (1.5 h, read-out: cm.mito.90min): 104% | viability at 100 µM (1.5 h, read-out: cm.tc.90min): 105% | viability at 0.01 µM (24 h, read-out: cm.cam.24hrs): 104% | activity at 0.01 µM (24 h, read-out: cm.mii.24hrs): 87% | activity at 0.01 µM (24 h, read-out: cm.mito.24hrs): 105% | viability at 0.01 µM (24 h, read-out: cm.tc.24hrs): 105% | viability at 0.1 µM (24 h, read-out: cm.cam.24hrs): 102% | activity at 0.1 µM (24 h, read-out: cm.mii.24hrs): 85.8% | activity at 0.1 µM (24 h, read-out: cm.mito.24hrs): 104% | viability at 0.1 µM (24 h, read-out: cm.tc.24hrs): 102% | viability at 1 µM (24 h, read-out: cm.cam.24hrs): 104% | activity at 1 µM (24 h, read-out: cm.mii.24hrs): 98% | activity at 1 µM (24 h, read-out: cm.mito.24hrs): 104% | viability at 1 µM (24 h, read-out: cm.tc.24hrs): 104% | viability at 10 µM (24 h, read-out: cm.cam.24hrs): 104% | activity at 10 µM (24 h, read-out: cm.mii.24hrs): 83.8% | activity at 10 µM (24 h, read-out: cm.mito.24hrs): 104% | viability at 10 µM (24 h, read-out: cm.tc.24hrs): 104% | viability at 100 µM (24 h, read-out: cm.cam.24hrs): 92.3% | activity at 100 µM (24 h, read-out: cm.mii.24hrs): 122% | activity at 100 µM (24 h, read-out: cm.mito.24hrs): 94.2% | viability at 100 µM (24 h, read-out: cm.tc.24hrs): 92.4% | minimal effective concentration [1]: 100 µM | minimal effective concentration [2]: 100 µM | minimal effective concentration [3]: 100 µM | minimal effective concentration [4]: 100 µM | minimal effective concentration [5]: 82.9 µM | minimal effective concentration [6]: 100 µM | minimal effective concentration [7]: 100 µM | minimal effective concentration [8]: 100 µM

Clc1cccc(-c2cccc(Cl)c2)c1 [PCB11]
viability at 0.01 µM (1.5 h, read-out: cm.cam.90min): 99% | activity at 0.01 µM (1.5 h, read-out: cm.mii.90min): 116% | activity at 0.01 µM (1.5 h, read-out: cm.mito.90min): 99.1% | viability at 0.01 µM (1.5 h, read-out: cm.tc.90min): 99% | viability at 0.1 µM (1.5 h, read-out: cm.cam.90min): 97.7% | activity at 0.1 µM (1.5 h, read-out: cm.mii.90min): 102% | activity at 0.1 µM (1.5 h, read-out: cm.mito.90min): 97.7% | viability at 0.1 µM (1.5 h, read-out: cm.tc.90min): 97.7% | viability at 1 µM (1.5 h, read-out: cm.cam.90min): 101% | activity at 1 µM (1.5 h, read-out: cm.mii.90min): 98.3% | activity at 1 µM (1.5 h, read-out: cm.mito.90min): 101% | viability at 1 µM (1.5 h, read-out: cm.tc.90min): 101% | viability at 10 µM (1.5 h, read-out: cm.cam.90min): 99.5% | activity at 10 µM (1.5 h, read-out: cm.mii.90min): 105% | activity at 10 µM (1.5 h, read-out: cm.mito.90min): 99.5% | viability at 10 µM (1.5 h, read-out: cm.tc.90min): 99.3% | viability at 100 µM (1.5 h, read-out: cm.cam.90min): 1.03% | activity at 100 µM (1.5 h, read-out: cm.mii.90min): 152% | activity at 100 µM (1.5 h, read-out: cm.mito.90min): 0.83% | viability at 100 µM (1.5 h, read-out: cm.tc.90min): 1.06% | viability at 0.01 µM (24 h, read-out: cm.cam.24hrs): 103% | activity at 0.01 µM (24 h, read-out: cm.mii.24hrs): 93.5% | activity at 0.01 µM (24 h, read-out: cm.mito.24hrs): 102% | viability at 0.01 µM (24 h, read-out: cm.tc.24hrs): 102% | viability at 0.1 µM (24 h, read-out: cm.cam.24hrs): 99.5% | activity at 0.1 µM (24 h, read-out: cm.mii.24hrs): 93% | activity at 0.1 µM (24 h, read-out: cm.mito.24hrs): 98.7% | viability at 0.1 µM (24 h, read-out: cm.tc.24hrs): 99.3% | viability at 1 µM (24 h, read-out: cm.cam.24hrs): 101% | activity at 1 µM (24 h, read-out: cm.mii.24hrs): 93.7% | activity at 1 µM (24 h, read-out: cm.mito.24hrs): 98.5% | viability at 1 µM (24 h, read-out: cm.tc.24hrs): 101% | viability at 10 µM (24 h, read-out: cm.cam.24hrs): 103% | activity at 10 µM (24 h, read-out: cm.mii.24hrs): 85.7% | activity at 10 µM (24 h, read-out: cm.mito.24hrs): 102% | viability at 10 µM (24 h, read-out: cm.tc.24hrs): 103% | viability at 100 µM (24 h, read-out: cm.cam.24hrs): 0.64% | activity at 100 µM (24 h, read-out: cm.mii.24hrs): 31.3% | activity at 100 µM (24 h, read-out: cm.mito.24hrs): 0.24% | viability at 100 µM (24 h, read-out: cm.tc.24hrs): 0.62% | minimal effective concentration [1]: 18.6 µM | minimal effective concentration [2]: 12.4 µM | minimal effective concentration [3]: 14.2 µM | minimal effective concentration [4]: 16.7 µM | minimal effective concentration [5]: 35.2 µM | minimal effective concentration [6]: 9.6 µM | minimal effective concentration [7]: 33.1 µM | minimal effective concentration [8]: 35.1 µM
